Results from ChEMBL document CHEMBL1138313, “Cyclization of the acyl glucuronide metabolite of a neutral endopeptidase inhibitor to an electrophilic glutarimide: synthesis, reactivity, and mechanistic analysis” (J Med Chem, 2007).

Legend:
Type in all cases: ADME, organism-based
Plasma = assay: Biodistribution in Wistar rat plasma per mL at 15 umol/kg, iv after 5 hrs; conditions: in vivo
[1] = Biodistribution in Wistar rat urine at 15 umol/kg, iv after 5 hrs; conditions: read-out: Drug uptake
[2] = Biodistribution in Wistar rat bile assessed as drug elimination at 15 umol/kg, iv after 1 hr; conditions: read-out: Drug uptake
[3] = Biodistribution in Wistar rat bile assessed as drug elimination at 15 umol/kg, iv after 5 hrs; conditions: read-out: Drug uptake
[4] = Biodistribution in Wistar rat bile at 50 umol/kg, iv after 1 hr; conditions: read-out: Drug uptake
[5] = Biodistribution in Wistar rat bile at 50 umol/kg, iv after 5 hrs; conditions: read-out: Drug uptake
Rattus norvegicus = assay: Biodistribution in Wistar rat bile at 15 umol/kg, iv; conditions: in vivo

## CCC[C@H](CC1(C(=O)Nc2nn[14c](CC)s2)CCCC1)C(=O)O
Plasma
  Drug uptake: 0.3 %ID
[1]
  dose excreted at 5 h: 4.9%
[2]
  dose excreted at 1 h: 28.7%
[3]
  dose excreted at 5 h: 75.1%

## CCC[C@@H]1CC2(CCCC2)C(=O)N(c2nnc(CC)s2)C1=O
[4]
  dose excreted at 1 h: 4.5%
[5]
  dose excreted at 5 h: 11%
Rattus norvegicus
  Drug uptake: 6%
